The target in experiment [1] is T1, β2-adaptin (Homo sapiens, UniProt P63010).
T1 construct: gene AP2B1; residues 700-937 StrepTagII used only for DSF
The experiment in a line: differential scanning fluorimetry (CPM dye) on purified β2-appendage, dose-dependent Tm shift; supported by GST-β2-adaptin([…]) pull-down and cell BRET (IC50 […] for β-arrestin1, from cell BRET). The experiment is classed as cell-based.

Experiment [2] addresses T1, β2-adaptin. The experiment in a line: cell-based. Also on record: species or system HEK293T. The settings on record: β-arrestin1/β2-adaptin interaction, V2R stimulated; read-out: IC50 AP2/βarr1 (V2R). How it is done: To assess the potency of these compounds, concentration-response curves of the inhibitory actions of the compounds on the V2R-stimulated β-arrestin/β2-adaptin interaction were carried out. In addition to compounds #33 and #42, compound #1 was included in the analysis as a negative control (Fig. 2a–c). […] First, the reversible mode of action of Barbadin was assessed by incubating cells with Barbadin for 30 min and monitoring BRET between β2-adaptin and β-arrestin1 following, or not, extensive wash before AVP stimulation. […] HEK293T cells stably expressing β2-adaptin-YFP (ref. [24]) were cultured as aforementioned with the addition of G418 in the supplemented DMEM. Forty-eight hours before the experiments, 10 μg of total DNA (adjusted with salmon sperm DNA) was used to transfect 6 × 10^6 cells per ml in 10-cm dishes using 25-kDa linear PEI as a transfecting agent (3:1 PEI/DNA ratio). […] On the day of the BRET experiment, cells were washed, detached and resuspended in Tyrode's buffer. Cells (10^5 cells per well) were distributed in 96-wells microplates. DMSO or compounds selected from the virtual screening were preincubated for 30 min at indicated concentrations, always keeping DMSO at 1% final concentration in each well. Cells were treated with AVP or ISO at the indicated times and concentrations, at room temperature. Coelenterazine H (for YFP BRET acceptor) or coelenterazine 400 A (for GFP10 BRET acceptor) was added at a final concentration of 2.5 μM five minutes before measurements. Readings were collected with a Mithras LB 940 multidetector plate reader (Berthold Technologies) to integrate signals detected in the 485/20 nm and 530/25 nm windows for the Renilla luciferase (RlucII) and YFP light emissions, respectively, and in the 400/70 nm and 515/25 nm windows for the RlucII and GFP10 light emissions, respectively. The BRET signal was determined by calculating the ratio of the light intensity emitted by the YFP or GFP10 over the light intensity emitted by the RlucII. Net BR

In experiment [3] the test system is β2-adaptin. The experiment in a line: cells. Further details: species or system HEK293T; ebBRET receptor-RlucII with rGFP-CAAX, inhibition of agonist-induced receptor loss from plasma membrane. The settings on record: Homo sapiens, HEK-293T, 0.5 h; β2AR endocytosis, ISO 10 uM 30 min; read-out: IC50 membrane localization β2AR. The text has this: Because the interaction between β-arrestins and β2-adaptin is important for initiating receptor internalization, we next sought to determine whether Barbadin could be used as a pharmacological tool, to block the ligand-promoted endocytosis of GPCRs. For this purpose, we used enhanced bystander BRET (ebBRET) trafficking sensors allowing to monitor both receptor disappearance from the plasma membrane (rGFP-CAAX sensor, Fig. 4a) and their accumulation in early endosomes (rGFP-FYVE, Fig. 4e) in spectrometric and microscopy-based assays. […] The effect of Barbadin on endocytosis was further confirmed using BRET-microscopy allowing to image receptor localization at the plasma membrane (Fig. 4i and Supplementary Fig. 5i), and in early endosomes (Supplementary Fig. 5j), coherent with the spectrometric measurements (Fig. 4b–d,f–h). Figure 4 Barbadin inhibits GPCRs endocytosis. […] (b–d,f–h) V2R, β2AR or AT1R interaction with either rGFP-CAAX (b–d, respectively) or rGFP-FYVE (f–h, respectively) was assessed by BRET following HEK293T cells pre-incubation with DMSO or Barbadin (100 μM) for 30 min before AVP (100 nM), ISO (10 μM) or AngII (1 μM) stimulation for the indicated times. […] To generate BRET images, the ratio of acceptor photon counts to donor photon counts was calculated for each pixel and expressed as a colour-coded heat map (lowest being black and purple, and highest red and white). […]

Experiment [4] concerns β2-adaptin. The experiment in a line: cells. The conditions noted are these: Homo sapiens, HEK-293T, 0.5 h. Also on record: species or system HEK293T; ebBRET receptor-RlucII with rGFP-FYVE, inhibition of agonist-induced receptor accumulation in early endosomes. The text has this: Because the interaction between β-arrestins and β2-adaptin is important for initiating receptor internalization, we next sought to determine whether Barbadin could be used as a pharmacological tool, to block the ligand-promoted endocytosis of GPCRs. For this purpose, we used enhanced bystander BRET (ebBRET) trafficking sensors allowing to monitor both receptor disappearance from the plasma membrane (rGFP-CAAX sensor, Fig. 4a) and their accumulation in early endosomes (rGFP-FYVE, Fig. 4e) in spectrometric and microscopy-based assays. […] The effect of Barbadin on endocytosis was further confirmed using BRET-microscopy allowing to image receptor localization at the plasma membrane (Fig. 4i and Supplementary Fig. 5i), and in early endosomes (Supplementary Fig. 5j), coherent with the spectrometric measurements (Fig. 4b–d,f–h).  Figure 4 Barbadin inhibits GPCRs endocytosis. (a,e) Schematic representation of the ebBRET-based assay used to follow agonist-induced receptor loss from the cell surface by monitoring the interaction between receptor-RLucII and rGFP-CAAX (a) or its translocation into endosomes using rGFP-FYVE (e). (b–d,f–h) V2R, β2AR or AT1R interaction with either rGFP-CAAX (b–d, respectively) or rGFP-FYVE (f–h, respectively) was assessed by BRET following HEK293T cells pre-incubation with DMSO or Barbadin (100 μM) for 30 min before AVP (100 nM), ISO (10 μM) or AngII (1 μM) stimulation for the indicated times. Data are the mean±s.e.m. of a least three independent experiments. (i) V2R localization was imaged by BRET. HEK293T cells were transfected with V2R-RlucII and rGFP-CAAX, pretreated with DMSO or Barbadin (100 μM) for 30 min and then stimulated with 100 nM AVP for 30 min. To generate BRET images, the ratio of acceptor photon counts to donor photon counts was calculated for each pixel and expressed as a colour-coded heat map (lowest being black and purple, and highest red and white). Scale bar, 10 μm.

Experiment [5] concerns the target T2, β2-adaptin(700–937)-StrepTagII (human, UniProt P63010 700-937).
T2 construct: human β2-adaptin, residues 700 to 937 (appendage domain); printed molecular weight 26.88 kDa; Cloned into pRSETA between BamHI and Acc65I; also called β2-appendage; β-appendage; source: E. coli BL21 pLysS, purified (Strep-Tactin Sepharose, sepharose column, gel filtration)
T2 sequence (looked up): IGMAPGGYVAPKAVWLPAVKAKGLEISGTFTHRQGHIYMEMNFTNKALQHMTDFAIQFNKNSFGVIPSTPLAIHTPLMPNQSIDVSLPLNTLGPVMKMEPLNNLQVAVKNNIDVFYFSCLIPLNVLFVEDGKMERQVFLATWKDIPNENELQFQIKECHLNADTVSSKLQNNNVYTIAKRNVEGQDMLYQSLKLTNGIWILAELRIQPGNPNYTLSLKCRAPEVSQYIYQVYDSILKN
The experiment in a line: differential scanning fluorimetry (thermal shift); 0.78 μM purified β2-adaptin (700–937) in PBS with 0.5 mM Triton X-100, 30 min with 20 μM β-arrestin1 C-terminal peptide; CPM dye; 30 °C to 90 °C at 6 °C per min. The settings on record: both partners purified. (In general: DSF heats the sample and reads unfolding from a dye or from intrinsic fluorescence.)

Like-named read-outs stand apart in the source and are kept apart here.

We go through four molecules from publication PMC5399295 (Nature Communications, 2017).

T1 sequence (P63010 2-937): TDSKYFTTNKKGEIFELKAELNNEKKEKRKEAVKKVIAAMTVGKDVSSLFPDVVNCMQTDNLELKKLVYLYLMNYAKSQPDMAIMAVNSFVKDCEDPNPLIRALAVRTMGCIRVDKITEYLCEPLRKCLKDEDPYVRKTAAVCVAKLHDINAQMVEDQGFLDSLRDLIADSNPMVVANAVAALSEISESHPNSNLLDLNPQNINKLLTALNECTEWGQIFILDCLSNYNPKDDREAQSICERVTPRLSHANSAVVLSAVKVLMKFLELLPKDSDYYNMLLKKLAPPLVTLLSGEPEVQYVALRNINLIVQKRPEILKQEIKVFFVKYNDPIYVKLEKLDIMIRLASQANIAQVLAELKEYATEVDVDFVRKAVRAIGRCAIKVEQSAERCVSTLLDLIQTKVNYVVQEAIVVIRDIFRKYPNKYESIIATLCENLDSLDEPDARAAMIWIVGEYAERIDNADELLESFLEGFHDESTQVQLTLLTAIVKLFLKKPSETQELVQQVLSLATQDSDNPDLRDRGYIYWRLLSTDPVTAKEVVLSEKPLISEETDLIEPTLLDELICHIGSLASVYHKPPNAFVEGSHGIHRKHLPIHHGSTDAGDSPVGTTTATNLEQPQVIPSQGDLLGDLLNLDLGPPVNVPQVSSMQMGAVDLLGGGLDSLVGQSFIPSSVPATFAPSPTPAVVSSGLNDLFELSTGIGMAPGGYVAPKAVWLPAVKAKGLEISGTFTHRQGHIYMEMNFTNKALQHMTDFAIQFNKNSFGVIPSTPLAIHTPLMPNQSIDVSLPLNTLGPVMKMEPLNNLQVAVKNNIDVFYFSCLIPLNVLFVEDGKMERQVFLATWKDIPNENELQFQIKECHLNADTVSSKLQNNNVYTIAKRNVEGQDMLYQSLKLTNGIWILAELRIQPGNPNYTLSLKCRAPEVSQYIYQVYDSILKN
T1 sequence (P49407 whole entry partner, the tested form may be a part): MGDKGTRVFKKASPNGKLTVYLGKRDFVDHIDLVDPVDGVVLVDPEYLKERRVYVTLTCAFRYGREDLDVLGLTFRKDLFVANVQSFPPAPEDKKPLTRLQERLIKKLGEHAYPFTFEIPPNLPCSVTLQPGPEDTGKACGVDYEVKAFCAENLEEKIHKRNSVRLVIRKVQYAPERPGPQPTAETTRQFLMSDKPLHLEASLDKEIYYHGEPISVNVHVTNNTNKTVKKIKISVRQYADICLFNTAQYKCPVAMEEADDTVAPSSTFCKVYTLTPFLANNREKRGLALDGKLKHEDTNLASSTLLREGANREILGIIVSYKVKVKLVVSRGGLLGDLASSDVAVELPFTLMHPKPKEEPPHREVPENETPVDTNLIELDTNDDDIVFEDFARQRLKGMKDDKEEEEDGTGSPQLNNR

`Nn1cnc2scc(-c3ccc(Cc4ccccc4)cc3)c2c1=O` [#42, 3-amino-5-(4-benzylphenyl)-3H,4H-thieno[2,3-d]pyrimidin-4-one]: the IC50 on β2-adaptin [1] is 19.1 µM; on β2-adaptin [2] it was 14.6 ± 5 µM; with β2-adaptin [3], 18.2 ± 7.7 µM; in the experiment with β2-adaptin [4] (AT1R endocytosis, AngII 1 uM 30 min, read-out: IC50 endosome localization AT1R), 40.6 ± 24.4 µM; in the experiment on β2-adaptin [4] (V2R endocytosis, AVP 100 nM 30 min, read-out: IC50 endosome localization V2R), 31.5 ± 14.4 µM; in the experiment with β2-adaptin [4] (β2AR endocytosis, ISO 10 uM 30 min, read-out: IC50 endosome localization β2AR) it was 18.4 ± 9.8 µM.
As to `Nn1cnc2scc(-c3ccc(-c4ccccc4)cc3)c2c1=O` [Analogue-C], the IC50 on β2-adaptin [2] is 54.3 ± 45 µM.
Take `Cc1nc2scc(-c3ccc(C(C)(C)C)cc3)c2c(=O)n1N` [Cpd #43]: the IC50 on β2-adaptin [2] was 15.4 ± 6.4 µM.

B1: β-arrestin1 C-terminal peptide (peptide)
peptide: DDDIVFEDFARQRLKGMKDD
notes: C-terminal stretch of β-arrestin1; holds Phe-388, Phe-391 and Arg-395; also called β-arrestin1 C-tail peptide; 20-mer β-arrestin C-tail peptide; source: synthetic peptide (Genscript)
Turning to B1, the binding result in experiment [5] is “binds”.
